In ChEMBL document CHEMBL1131495, “2,4-Diamino-6,7-dihydro-5H-cyclopenta[d]pyrimidine analogues of trimethoprim as inhibitors of Pneumocystis carinii and Toxoplasma gondii dihydrofolate reductase” (J Med Chem, 1998):

Legend:
Dihydrofolate reductase [1] = target: T1, Dihydrofolate reductase (Rattus norvegicus, UniProt Q920D2)
T1 sequence (Q920D2 whole entry): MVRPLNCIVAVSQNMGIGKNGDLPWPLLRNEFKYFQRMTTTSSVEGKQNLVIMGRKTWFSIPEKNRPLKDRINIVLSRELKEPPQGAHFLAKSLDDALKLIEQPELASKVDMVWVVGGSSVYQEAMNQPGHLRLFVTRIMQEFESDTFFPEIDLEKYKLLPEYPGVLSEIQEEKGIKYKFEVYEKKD
Description: Compound was tested for inhibition activity against rat liver lipophilic Dihydrofolate reductase (DHFR).

[2] = Selectivity ratio is the ratio between the IC50 values of rat liver and Toxoplasma gondii
[3] = target: T2, Bifunctional dihydrofolate reductase-thymidylate synthase (Toxoplasma gondii, UniProt Q07422); assay: Compound was tested for inhibition activity against Toxoplasma gondii (Toxoplasma gondii) Dihydrofolate reductase
T2 sequence (Q07422 whole entry): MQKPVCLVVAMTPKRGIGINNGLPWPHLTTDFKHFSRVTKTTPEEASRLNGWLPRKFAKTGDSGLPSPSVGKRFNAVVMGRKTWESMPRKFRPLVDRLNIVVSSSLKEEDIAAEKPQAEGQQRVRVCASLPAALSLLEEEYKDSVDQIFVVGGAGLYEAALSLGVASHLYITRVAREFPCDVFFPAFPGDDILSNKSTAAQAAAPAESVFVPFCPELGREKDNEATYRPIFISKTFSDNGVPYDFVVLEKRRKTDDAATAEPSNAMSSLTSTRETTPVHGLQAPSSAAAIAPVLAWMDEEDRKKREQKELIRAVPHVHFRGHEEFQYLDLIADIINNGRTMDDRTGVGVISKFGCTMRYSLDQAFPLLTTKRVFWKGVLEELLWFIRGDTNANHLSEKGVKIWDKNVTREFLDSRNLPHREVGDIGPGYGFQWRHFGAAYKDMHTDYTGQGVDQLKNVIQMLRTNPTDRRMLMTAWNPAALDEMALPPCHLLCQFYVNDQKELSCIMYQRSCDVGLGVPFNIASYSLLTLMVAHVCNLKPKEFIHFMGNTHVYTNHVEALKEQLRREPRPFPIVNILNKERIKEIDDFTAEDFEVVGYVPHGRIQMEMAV

[4] = Selectivity ratio is the ratio between the IC50 values of rat liver and Pneumocystis carinii
Dihydrofolate reductase [5] = target: T3, Dihydrofolate reductase (Pneumocystis carinii, UniProt P16184)
T3 sequence (P16184 whole entry): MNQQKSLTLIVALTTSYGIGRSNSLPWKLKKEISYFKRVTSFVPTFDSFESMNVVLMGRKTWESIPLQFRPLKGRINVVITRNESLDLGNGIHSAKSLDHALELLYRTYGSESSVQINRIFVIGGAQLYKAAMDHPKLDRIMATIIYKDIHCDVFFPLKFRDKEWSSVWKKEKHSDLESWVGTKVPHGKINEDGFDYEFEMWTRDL
Description: Compound was tested for inhibition activity against pneumocystis carinii (Pneumocystis carinii) Dihydrofolate reductase

IC50 (Dihydrofolate reductase [1]) [nM]	Selectivity ratio [4]	IC50 (Dihydrofolate reductase [5]) [nM]	Compound	Selectivity ratio [2]	IC50 [3] [nM]
15	–	–	COc1ccc(OC)c(Cc2cnc3nc(N)nc(N)c3c2C)c1 [PIRITREXIM]	–	–
510	0.28	1800	COc1cc(CCC2CCc3nc(N)nc(N)c32)cc(OC)c1OC (stereo not given)	3.64	140
220	0.17	1300	COc1cc(CCCC2CCc3nc(N)nc(N)c32)cc(OC)c1OC (stereo not given)	1.57	140
69000	–	> 32000	COc1cc(CC2CCc3nc(N)nc(N)c32)cc(OC)c1OC (stereo not given)	3.29	21000
